Data as given in US12329788B2, “Synbiotic compositions” (Evonik Operations GmbH, priority 2018, dated 2025).
Where a SMILES comes first, the peptide text is derived from it.

Assays:
[1] = system: Clostridium XI cluster; test: i-screen microbiota composition by 16S rRNA V4 sequencing, Clostridium XI; assay type: cell-based, human; settings: for effect on Clostridia XI group: Example 8, dipeptides 7 mM, 0% O2; for Clostridium_XI relative abundance: 24 h SIEM, amino acids 3.5 mM, dipeptides 7 mM
Text: (§1) To determine the effect of the probiotic strains Bacillus subtilis DSM 32315, Bacillus subtilis DSM 32540, Bacillus licheniformis DSM 32314 and Bacillus amyloliquefaciens CECT 5940 on adult colonic microbiota, an intestinal screening model was used (i-screen, TNO, the Netherlands). Therefore the i-screen model was inoculated with standard human adult fecal microbiota material, which consisted of pooled fecal donations from 6 healthy adult volunteers (Caucasian, European lifestyle and nutrition). The fecal material was mixed and grown in a fed-batch fermenter for 40 hours to create a standardized microbiota as described previously. These standard adult gut microbiota sets were stored at −80° C. in 12% glycerol.
(§2) The intestinal microbiota was cultured in vitro in modified standard ileal efflux medium (SIEM), the composition of which was described by and modified as follows: 0.047 g/l pectin, 0.047 g/l xylan, 0.047 g/l arabinogalactan, 0.047 g/l amylopectin, 0.392 g/l starch, 24.0 g/l casein, 24.0 Bacto pepton, 0.4 ox-bile and 0.2 g/l cysteine. All components were supplied by Trititium Microbiology (Veldhoven, The Netherlands). The pH of the medium was adjusted to 5.8.
For the i-screen fermentations, the precultured standardized fecal inoculum was diluted 50 times in 1350 μl modified SIEM. All experiments have been carried out in triplicates. The strains Bacillus subtilis (DSM 32315), Bacillus subtilis DSM 32540, Bacillus licheniformis DSM 32314 and Bacillus amyloliquefaciens CECT 5940 were precultured separately in 50 ml LBKelly medium, for about 16 h. Incubation was done in shaking flasks at 37° C. under aerobic conditions. After incubation, bacterial density was determined by optical density measurement at 600 nm. A final stock solution of 1×10^10 cells/ml was prepared in 1 ml buffer solution (0.1 mM MES pH 6). […]
(§3) DNA extraction for the sequencing of 16S rRNA coding genes was performed as described by Ladirat et al. (2013) with some minor modifications. Approximately 100 μl of the culture materials were added to the wells of a 96 well plate containing per well 300 μl of lysis buffer (Mag Mini DNA Isolation Kit, LGC ltd, UK), 500 μl zirconium beads (0.1 mm; BioSpec products, Bartlesville, OK, USA) and 500 μl of phenol saturated with Tris-HCI (pH 8.0; Carl Roth GMBH, Germany). The 96 well plate was placed in a Mini-BeadBeater-96 (BioSpec products, Bartlesville, Okla, USA) for 2 min at 2100 oscillations/min. DNA was subsequently purified using the Agowa Mag Mini DNA Isolation Kit according to the manufacturer recommendations. Extracted DNA was eluted in a final volume of 60 μl buffer.
(§4) The microbiota composition was analyzed by 16S rRNA gene amplicon sequencing of the V4 Hypervariable Region. This was Achieved Through a Series of Steps:
(§5) Subsequently, PCR amplicons of the V4 hypervariable region of the 16S rRNA gene were generated for the individual samples by amplification of […] of DNA as described by (2013), using F515/R806 primers. Primers included Illumina adapters and a unique 8-nt sample index sequence key. A mock control was included for technical quality control. The amount of amplified DNA per sample was quantified using the dsDNA 910 Reagent Kit on the Fragment Analyzer (Advanced Analytical). The amplicon libraries were pooled in equimolar amounts and purified from 1,2% agarose gel using the Gel Extraction Kit (Qiagen). The Library was quantified using the Quant-iT™ PicoGreen® dsDNA Assay Kit (Thermo Fisher Scientific). Paired-end sequencing of amplicons was conducted on the Illumina MiSeq platform (Illumina, Eindhoven, The Netherlands).
(§6) The sequence data was processed with Mothur v.1.36.1 [26] in line with the mothur MiSeq SOP [24].

[2] = system: Clostridium XIVa cluster; test: i-screen microbiota composition by 16S rRNA V4 sequencing, Clostridium XIVa; assay type: cell-based, human; settings: 24 h SIEM, amino acids 3.5 mM, dipeptides 7 mM
Text: as §1, §2
For the i-screen fermentations, the precultured standardized fecal inoculum was diluted 50 times in 1350 μl modified SIEM. All experiments have been carried out in triplicates. The strains Bacillus subtilis (DSM 32315), Bacillus subtilis DSM 32540, Bacillus licheniformis DSM 32314 and Bacillus amyloliquefaciens CECT 5940 were precultured separately in 50 ml LBKelly medium, for about 16 h. Incubation was done in shaking flasks at 37° C. under aerobic conditions. After incubation, bacterial density was determined by optical density measurement at 600 nm. A final stock solution of 1×10^10 cells/ml was prepared in 1 ml buffer solution (0.1 mM MES pH 6). The suspension of each strain was introduced into the i-screen to a final level of about 10^9 cells/ml, respectively
The i-screen incubation was performed under following gas conditions: 0.2% O2, 0.2% CO2, 10% H2, 89.6% N2.
as §3, §4, §5, §6

[3] = system: gut microbiota; settings: oral supplementation, overweight humans; cited from earlier work
[4] = oral supplementation, guinea-pigs treated with methotrexate; cited from earlier work
[5] = infused, post-operative anaesthetized dogs; cited from earlier work
[6] = microbiota + CECT 5940 (first group so headed, r13-r15)
[7] = microbiota + CECT 5940 (second group so headed, r16-r18)

SMILES: NCC(=O)O.N[C@@H](CCC(=O)O)C(=O)O [Gly-Glu, Glycine-Glutamic acid]
- effect on Clostridia XI group [1]: reduced the Clostridia XI group almost completely
- Clostridium_XI relative abundance [1, 6]: 0%
- Clostridium_XI relative abundance [1, 7]: 0%
- Clostridium_XI relative abundance ([1]; microbiota + DSM 32315): 0%
- Clostridium_XI relative abundance ([1]; microbiota, no probiotic cells): 0%
- Clostridium_XIVa relative abundance [2, 6]: 9%
- Clostridium_XIVa relative abundance [2, 7]: 10%
- Clostridium_XIVa relative abundance ([2]; microbiota + DSM 32315): 8%
- Clostridium_XIVa relative abundance ([2]; microbiota, no probiotic cells): 4%

SMILES: NC(=O)CC[C@H](N)C(=O)O [Gln, glutamine, reference compound]
- Firmicutes to Bacteriodetes ratio [3]: reducing the Firmicutes to Bacteriodetes ratio
- Clostridium_XI relative abundance [1, 6]: 20%
- Clostridium_XI relative abundance [1, 7]: 21%
- Clostridium_XI relative abundance ([1]; microbiota + DSM 32315): 24%
- Clostridium_XI relative abundance ([1]; microbiota, no probiotic cells): 28%
- mortality [4]: reduced mortality
- Clostridium_XIVa relative abundance [2, 6]: 1%
- Clostridium_XIVa relative abundance [2, 7]: 9%
- Clostridium_XIVa relative abundance ([2]; microbiota + DSM 32315): 2%
- Clostridium_XIVa relative abundance ([2]; microbiota, no probiotic cells): 1%

SMILES: C[C@H](N)C(=O)N[C@@H](CCC(N)=O)C(=O)O [Ala-Gln, Alanine-Glutamine] (H-Ala-Gln-OH)
- extraction of the amino acids by skeletal muscle [5]: extracted by skeletal muscle almost as well as from mixtures of alanine and glutamine
- effect on Clostridia XI group [1]: reduced the Clostridia XI group almost completely
- Clostridium_XI relative abundance [1, 6]: 0%
- Clostridium_XI relative abundance [1, 7]: 0%
- Clostridium_XI relative abundance ([1]; microbiota + DSM 32315): 0%
- Clostridium_XI relative abundance ([1]; microbiota, no probiotic cells): 0%
- Clostridium_XIVa relative abundance [2, 6]: 10%
- Clostridium_XIVa relative abundance [2, 7]: 6%
- Clostridium_XIVa relative abundance ([2]; microbiota + DSM 32315): 4%
- Clostridium_XIVa relative abundance ([2]; microbiota, no probiotic cells): 2%

SMILES: N[C@@H](CCC(=O)O)C(=O)O [Glu, glutamic acid, reference compound]
- Clostridium_XI relative abundance [1, 6]: 26%
- Clostridium_XI relative abundance [1, 7]: 18%
- Clostridium_XI relative abundance ([1]; microbiota + DSM 32315): 25%
- Clostridium_XI relative abundance ([1]; microbiota, no probiotic cells): 27%
- Clostridium_XIVa relative abundance [2, 6]: 1%
- Clostridium_XIVa relative abundance [2, 7]: 1%
- Clostridium_XIVa relative abundance ([2]; microbiota + DSM 32315): 3%
- Clostridium_XIVa relative abundance ([2]; microbiota, no probiotic cells): 1%

SMILES: CC(=O)N[C@@H](C)C(=O)N[C@@H](CCC(N)=O)C(=O)O [Ac-Ala-Gln] (Ac-Ala-Gln-OH)
- Clostridium_XI relative abundance [1, 6]: 21%
- Clostridium_XI relative abundance [1, 7]: 20%
- Clostridium_XI relative abundance ([1]; microbiota + DSM 32315): 31%
- Clostridium_XI relative abundance ([1]; microbiota, no probiotic cells): 27%
- Clostridium_XIVa relative abundance [2, 6]: 1%
- Clostridium_XIVa relative abundance [2, 7]: 4%
- Clostridium_XIVa relative abundance ([2]; microbiota + DSM 32315): 2%
- Clostridium_XIVa relative abundance ([2]; microbiota, no probiotic cells): 1%
